For test [1], the system named is SW1088 (Low Grade Glioma). Briefly: combination Emax (second highest fraction inhibited in the dose matrix, 72 h); higher = more inhibition; extreme values may be limits of the assay. In a few lines: (§1)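 Cell lines grown in DMEM/F12 or RPMI with 10% FBS were plated in 1536-well plates and held 24 hours at 37°C, 5% CO2 before 72 hours of exposure to two-drug dose matrices, with DMSO typically at 0.2%. CellTiter-Glo 2.0 luminescence gave viability, which was converted to inhibition. Vehicle wells were set to 0 and blank wells to 1. Combination Emax is the second-highest inhibition in the matrix, and Bliss excess is the observed combination effect minus the expected EA + EB − EA·EB, where EA and EB are the single-agent effects.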

The subject of test [2] is 697 (B-Lymphoblastic Leukemia). The description is as above. In a few lines:
as §1

Test [3] relates to CAL-78 (Chondrosarcoma). The description is as above. A digest of the protocol: as §1
Test [4] has as its system LS-513 (Colorectal Carcinoma). Described as above. A digest of the protocol: as §1
Test [5] relates to NCI-H1299 (Non-Small Cell Lung Carcinoma). Described as above. In a few lines:
as §1

Test [6] deals with SW1990 (Pancreatic Carcinoma). The description is as above. A digest of the protocol:
as §1

Test [7] concerns NCI-H1793 (Lung Adenocarcinoma). The description is as above. In a few lines:
as §1

Test [8] relates to J82 (Bladder Carcinoma). The test is described as above. A digest of the protocol:
as §1

The subject of test [9] is ES7 (Ewing's Sarcoma). The test is described as above. In a few lines: as §1
Test [10] has as its system KATOIII (Gastric Carcinoma). Briefly: Bliss excess, mean over the matrix (fraction); higher = more synergy. A digest of the protocol: as §1
The subject of test [11] is JiyoyeP-2003 (Burkitt's Lymphoma). The test is described as above. A digest of the protocol:
as §1

Test [12] concerns NCI-H1299 (Non-Small Cell Lung Carcinoma). Described as above. In a few lines: as §1
Test [13] concerns KARPAS-620 (Plasma Cell Myeloma). The test is described as above. A digest of the protocol:
as §1

In test [14] the test system is IHH-4 (Thyroid Gland Carcinoma). Described as above. A digest of the protocol: as §1
The test system of test [15] is MFH-ino (Other Solid Carcinomas). The description is as above. A digest of the protocol: as §1
The subject of test [16] is U-266 (Plasma Cell Myeloma). The description is as above. In a few lines:
as §1

Test [17] has as its system G-292-Clone-A141B1 (Osteosarcoma). The description is as above. A digest of the protocol: as §1
Test [18] has as its system RH-1 (Ewing's Sarcoma). The description is as above. A digest of the protocol:
as §1

The subject of test [19] is CTV-1 (T-Lymphoblastic Leukemia). The description is as above. In a few lines:
as §1

In test [20] the test system is J82 (Bladder Carcinoma). Described as above. A digest of the protocol:
as §1

SMILES strings stand for the structures.

Turning to `CN(C)CCCOc1ccc(-c2ccc3ncc4c(c3c2)n(C2CCOCC2)c(=O)n4C)cn1` [AZD0156] + CCN(CCO)CCCOc1ccc2c(Nc3cc(CC(=O)Nc4cccc(F)c4)[nH]n3)ncnc2c1 [AZD2811] (first compound max 1 µM, 7x7, partner max 1 µM), the “combination Emax” value in [1] worked out at 0.364; in test [2] it was 1; in test [3], 0.193; in [4] it was 0.508; in [5] it was 0.251; in test [6], 0.0964. For the same compound, the “combination Emax” value worked out at 0.182 in test [7], 0.283 in test [8] and 0.799 in test [9]. Further, the Bliss excess in [10] is -0.0366; in test [11], 0.0832; in test [12] it was -0.021; in test [13] it was 0.112; in [14] it was 0.0153; in [15], -0.0453. In addition, the Bliss excess in [16] is 0.0028; in [17] it was -0.0669; in test [18], -0.0337; in test [19], 0.0458; in [20], 0.0201.
As to `COc1cc2c(cc1OCCCCCOc1cc3c(cc1OC)C(=O)N1C=C(C)C[C@H]1C=N3)N=C[C@@H]1CC(C)=CN1C2=O` [SG3199] + O=C(c1cc(Cc2n[nH]c(=O)c3ccccc23)ccc1F)N1CCN(C(=O)C2CC2)CC1 [Olaparib] (first compound max 0.001 µM, 7x7, partner max 10 µM), the “combination Emax” value in test [1] turned out to be 0.151; in test [2] it was 0.984; in test [3], 0.268; in test [4] it was 0.155; in [5], 0.138; in [6], 0.125. The entries for the “combination Emax” value in test [7], in test [8] and in test [9] were 0.138, 0.187 and 0.832, respectively. Also, the Bliss excess in test [10] is -0.0365; in test [11] it was -0.0016; in [12] it was -0.0381; in test [13], -0.0015; in test [14] it was -0.0115; in test [15] it was -0.0739. Besides, the Bliss excess in test [16] was -0.0601; in test [17] it was -0.0571; in [18], -0.0035; in test [19], -0.013; in test [20] it was 0.0123.
As for `COc1cccc(OCCCN)c1-c1cc(Nc2cnc(C#N)cn2)n[nH]1` [Prexasertib] + C[C@@H]1COCCN1C2=NC(=NC(=C2)C3(CC3)[S@](=N)(=O)C)C4=C5C=CNC5=NC=C4 [AZD6738] (first compound max 1 µM, 7x7, partner max 10 µM), the “combination Emax” value is 0.762 in test [1]; 1 in [2]; 0.604 in test [3]; 0.8 in [4]; 0.732 in test [5]; 0.695 in test [6]. The “combination Emax” value came to 0.423 in test [7], 0.522 in test [8] and 0.855 in test [9]. The Bliss excess in test [10] is 0.0124; in test [11], -0.0065; in [12], -0.0013; in test [13] it was -0.0375; in [14] it was 0.0132; in test [15], 0.0457. Further, the Bliss excess in [16] was -0.0859; in [17], 0.0477; in [18], 0.0014; in [19] it was -0.0725; in test [20] it was -0.0198.
For `NC1(C(=O)N[C@@H](CCO)c2ccc(Cl)cc2)CCN(c2ncnc3[nH]ccc23)CC1` [Capivasertib] + CC(C)n1c(=O)n(C)c2cnc3cc(F)c(-c4ccc(OCCCN5CCCCC5)nc4)cc3c21 [AZD1390] (first compound max 10 µM, 7x7, partner max 0.3 µM), the “combination Emax” value is 0.624 in [1]; 0.59 in test [2]; 0.414 in [3]; 0.471 in [4]; 0.254 in [5]; 0.143 in test [6]. Moreover, the results for the “combination Emax” value in test [7], in test [8] and in test [9] were 0.265, 0.392 and 0.446, respectively. The Bliss excess in test [10] is -0.118; in test [11], -0.024; in test [12] it was -0.0362; in test [13] it was -0.0273; in [14], -0.0074; in [15] it was -0.0771. The Bliss excess in test [16] was -0.101; in [17], -0.0453; in test [18], -0.0292; in [19], -0.0908; in test [20] it was -0.0659.
Regarding `COc1cc2ncnc(Nc3ccc(F)c(Cl)c3)c2cc1OCCCN1CCOCC1` [Gefitinib] + CC(C)n1c(=O)n(C)c2cnc3cc(F)c(-c4ccc(OCCCN5CCCCC5)nc4)cc3c21 [AZD1390] (first compound max 10 µM, 7x7, partner max 0.3 µM), the “combination Emax” value in test [1] came out at 0.108; in [2], 0.422; in [3], 0.194; in test [4] it was 0.354; in [5] it was 0.0669; in test [6], 0.213. Also, the “combination Emax” value stood at 0.143 in test [7], 0.139 in test [8] and 0.385 in test [9]. Moreover, the Bliss excess was -0.0113 in test [10]; -0.0386 in test [11]; -0.0561 in [12]; -0.0538 in [13]; -0.043 in test [14]; -0.0761 in [15]. For the same compound, the Bliss excess in test [16] was -0.0442; in [17], -0.0548; in test [18], -0.0399; in [19], -0.0468; in test [20], -0.12.
Regarding `Cc1cc2ncnn2cc1Nc1ncc2c(n1)n(C1CCOCC1)c(=O)n2C` [AZD7648] + CCN(CCO)CCCOc1ccc2c(Nc3cc(CC(=O)Nc4cccc(F)c4)[nH]n3)ncnc2c1 [AZD2811] (first compound max 10 µM, 7x7, partner max 1 µM), the “combination Emax” value stood at 0.686 in [1]; 1 in test [2]; 0.335 in test [3]; 0.507 in test [4]; 0.37 in test [5]; 0.201 in [6]. The “combination Emax” value in test [7] was 0.26; in test [8] it was 0.126; in test [9] it was 0.855. In addition, the Bliss excess was -0.0526 in test [10]; 0.0829 in test [11]; 0.0093 in [12]; 0.0088 in test [13]; 0.0429 in [14]; -0.0094 in [15]. Moreover, the Bliss excess is 0.0204 in [16]; 0.0147 in [17]; -0.0385 in test [18]; 0.0709 in test [19]; -0.0488 in [20].
`CN(C)CCCOc1ccc(-c2ccc3ncc4c(c3c2)n(C2CCOCC2)c(=O)n4C)cn1` [AZD0156] + C=CCn1c(=O)c2cnc(Nc3ccc(N4CCN(C)CC4)cc3)nc2n1-c1cccc(C(C)(C)O)n1 [AZD1775] (first compound max 1 µM, partner max 1 µM): the “combination Emax” value was found to be 0.425 in test [1]; 1 in test [2]; 0.428 in test [3]; 0.827 in test [4]; 0.742 in test [5]; 0.483 in test [6]. The results for the “combination Emax” value in [7], in test [8] and in test [9] were 0.387, 0.333 and 0.542, respectively. The Bliss excess was -0.064 in [10]; -0.0012 in [11]; -0.0179 in test [12]; 0.0135 in test [13]; 0.0247 in [14]; -0.0954 in test [15]. In addition, the Bliss excess was 0.0168 in [16]; -0.0538 in test [17]; 0.0329 in [18]; -0.0169 in test [19]; -0.0194 in test [20].

These data come from the supplement of paper PMC11061612.
